In patent publication EP0463592A1, “2,4- and 2,5-substituted pyridine-N-oxides, processes for their preparation and for their utilization” (HOECHST AKTIENGESELLSCHAFT, priority 1990, dated 1992):

System: durch CCl4 induzierte Leberfibrose in Ratten
Assay: Effect of prolyl hydroxylase inhibitors on CCl4-induced liver fibrosis in rats: serum bilirubin, bile acids, gamma GT
Type: in vivo
Settings: rat serum, 20 mg/kg total daily oral dose; for Bile acids / Bilirubin / Gamma GT: CCl4 then compound, mean ± standard deviation; for Bile acids: prozentuale Verbesserung gegenüber einer ausschließlichen CCl4-Behandlung / Bilirubin: prozentuale Verbesserung gegenüber einer ausschließlichen CCl4-Behandlung / Gamma GT: prozentuale Verbesserung gegenüber einer ausschließlichen CCl4-Behandlung: value in brackets
Excerpt: Um die effiziente Inhibitierung der Prolin-hydroxylase und der Lysin-hydroxylase durch die Verbindungen gemäß der Erfindung zu zeigen, werden die Konzentrationen von Bilirubin, Bile-Säuren und Gamma GT im Serum von • a) unbehandelten Ratten (Kontrolle), • b) mit CCl₄ behandelten Ratten, • c) Ratten, denen zuerst CCl₄ und anschließend eine Verbindung gemäß der Erfindung gegeben wurden, gemessen. (Die Methode ist beschrieben von Rouiller, C., Experimental toxic injury of the liver; in The Liver, C. Rouiller, Vol. 2, Seiten 335-476, New York, Academic Press 1964).
Die Ergebnisse sind in Tabelle 1 zusammengefaßt.

| Compound | Bile acids | Bilirubin | Gamma GT | Bile acids: prozentuale Verbesserung gegenüber einer ausschließlichen CCl4-Behandlung | Bilirubin: prozentuale Verbesserung gegenüber einer ausschließlichen CCl4-Behandlung | Gamma GT: prozentuale Verbesserung gegenüber einer ausschließlichen CCl4-Behandlung |
| --- | --- | --- | --- | --- | --- | --- |
| COCCNC(=O)c1cc[n+]([O-])c(C(=O)NCCOC)c1 [Beispiel 1, Pyridin-2,4-dicarbonsäure-di-N,N'-(2-methoxyethyl)amid-N-oxid] | 97 ± 76 | 6,30 ± 5,4 µm | 4,3 ± 3,1 U/L | 0% | 0% | 27% |
| COCCCNC(=O)c1cc[n+]([O-])c(C(=O)NCCCOC)c1 [Beispiel 2, Pyridin-2,4-dicarbonsäure-di-N,N'-(3-methoxypropyl)amid-N-oxid] | 71 ± 42 | 2,90 ± 0,94 µm | 3,3 ± 2,2 U/L | 18% | 65% | 59% |
